The values below come from patent US5541174A, “Analgesic method” (priority 1995, dated 1996).

The term ED50 denotes the dose that gives a 50% effect, or the effect in half of the subjects. As usually defined, the % Inhibition is the change of the read-out against control, counted positive when it falls.

The subject of assay [1] is acetic acid induced writhing in mice. Briefly: Acetic acid-induced writhing test. As to conditions: for activity versus other copper complexes and parent ligand: Table VI. Type of assay: in vivo, ICR male mice. The method, then: 1. Acetic acid-induced writhing test as described in Koster et al., "Acetic Acid for Analgesic Screening", Fed. Proc. 18, 412 (1959), incorporated by reference herein; and
Groups of 10 ICR male mice (Taisho Pharmaceutical Co. Research Center) were used to study each dose of every compound. Ligands or complexes were administered orally or subcutaneously in 0.1 ml of vehicle per 10 g of body weight 30 minutes before the intrapertioneal injection of 0.1 ml of 0.7% acetic acid solution per 10 g of body weight. Number of writhes were counted for each mouse during a period of 10 to 20 min after acetic acid injection. Inhibitory percent was calculated by comparison with the number of writhes in the non-treated control, vehicle-treated, and acetic acid-injected group. The ED50 value and 95% confidence limits were calculated from the inhibitory percent by the method of Litchfield and Wilcoxon.
(An intraperitoneal irritant provokes the stretching counted in writhing tests.)

The subject of assay [2] is adjuvant-induced arthritic pain in rats. Briefly: Adjuvant-induced arthritic pain. The format is in vivo, male Sprague-Dawley rats. An excerpt:
2. Adjuvant-induced arthritic pain as described in:
S. KUZNA, et al., Measurement of Arthritic Pain and Effects of Analgesics in the Adjuvant-Treated Rat, Chem. Pharm. Bull. 23, 1184-1191 (1975);
C. A. WINTER, et al., Analgesic Activity of Diflunisal in Rats with Hyperalygesia Induced by Freud's Adjuvant, J. Pharmacol. Exp. Ther. 211, 678-685 (1979; and
M. E. ROSENTHALE, et al., Adjuvant Arthritis:Immuno-Pathological and Hyperalgesic Features, Fed. Proced. 41, 2577-2582 (1982),
incorporated by reference herein.
Groups of 5-6 male Sprague-Dawley rats (Taisho Pharmaceutical Co. Research Center) weighing 140 to 160 g at the time of Mycobacterium butyricum (adjuvant, Difco Laboratories, Detroit, Mich.) injection were used to study each compound. Rats were injected intradermally at the base of the tail with 0.1 ml of a parafin oil suspension of 0.5 mg of heat-killed mycobacterium. Fifteen to 19 days later, drugs were administered orally or subcutaneously in 0.5 ml of vehicle per 100 g of body weight to rats showing the nociceptive reaction, vocalization following a gentle flexion of the tarsal-tibial joint of the inflamed hind-paw. Vocalization responses were measured every hour for 5 hours. […] The ED50 value and 95% confidence limits were calculated from the positive rate for non-treated controls, vehicle-treated adjuvant arthritic rats, by the method of Litchfield and Wilcoxin.
All drugs were suspended with 5% gum arabic in saline solution or wetted with enough propylene glycol to give a final concentration of 4% propylene glycol and the wetted solid suspended in 1.4% polyvinyl alcohol in saline.

Setting [3] is: oral, 5% gum arabic, 0.45 mmol/kg.
[4] abbreviates: oral, 5% gum arabic, 0.90 mmol/kg.
Setting [5] is: oral, 5% gum arabic, 1.46 mmol/kg.
The mark [6] stands for this setting: oral, 5% gum arabic, 0.56 mmol/kg.
[7] abbreviates: oral, 5% gum arabic, 1.11 mmol/kg.
Where [8] appears, read: oral, 5% gum arabic, 0.20 mmol/kg.
Where [9] appears, read: oral, 5% gum arabic, 0.40 mmol/kg.
The mark [10] stands for this setting: oral, 5% gum arabic, 0.42 mmol/kg.
The mark [11] stands for this setting: oral, 5% gum arabic, 0.33 mmol/kg.

Where two headings read alike, the source gives them in different places.

For `CC(C)c1cc(C(=O)O)c(O)c(C(C)C)c1` [3,5-Dips, 3,5-diisopropylsalicylic acid, reference compound], the ED50 in assay [1] (oral, 5% gum arabic in saline) is 0.27 mmol/kg; in assay [1] (oral, PG-PVA in saline), 0.44 mmol/kg; in assay [1] (s.c., PG-PVA in saline) it was 0.23 mmol/kg; in assay [2] (oral, 5% gum arabic in saline) it was 0.36 mmol/kg; in assay [2] (oral, PG-PVA in saline), greater than 0.90 mmol/kg. For the same compound, the “% Inhibition” value in assay [1] (setting [3]) turned out to be 66%; in assay [1] (setting [4]), 88%; in assay [1] (oral, PG-PVA, 0.45 mmol/kg) it was 56%; in assay [1] (oral, PG-PVA, 0.90 mmol/kg) it was 78%; in assay [1] (s.c., PG-PVA, 0.11 mmol/kg), 22%; in assay [1] (s.c., PG-PVA, 0.23 mmol/kg) it was 49%. The “% Inhibition” value was found to be 91% in assay [1] (s.c., PG-PVA, 0.45 mmol/kg); 30% in assay [2] (oral, 5% gum arabic, 0.22 mmol/kg); 53% in assay [2] (setting [3]); 92% in assay [2] (setting [4]); 27% in assay [2] (oral, PG-PVA, 0.45 mmol/kg); 43% in assay [2] (oral, PG-PVA, 0.90 mmol/kg).
With `Nc1ccccc1C(=O)O` [Anthranilic acid, reference compound], the 50% effective dose (ED50) in assay [1] (oral, 5% gum arabic in saline) was greater than 1.46 mmol/kg; in assay [1] (oral, PG-PVA in saline) it was greater than 2.19 mmol/kg; in assay [1] (s.c., PG-PVA in saline), 0.64 mmol/kg; in assay [2] (oral, 5% gum arabic in saline) it was 0.83 mmol/kg; in assay [2] (oral, PG-PVA in saline), greater than 1.44 mmol/kg. In addition, the “% Inhibition” value is recorded as 18% in assay [1] (setting [5]); 45% in assay [1] (oral, PG-PVA, 2.19 mmol/kg); 30% in assay [1] (s.c., PG-PVA, 0.27 mmol/kg); 36% in assay [1] (s.c., PG-PVA, 0.55 mmol/kg); 71% in assay [1] (s.c., PG-PVA, 1.09 mmol/kg); 23% in assay [2] (oral, 5% gum arabic, 0.36 mmol/kg). The “% Inhibition” value in assay [2] (oral, 5% gum arabic, 0.73 mmol/kg) stood at 41%; in assay [2] (setting [5]) it was 73%; in assay [2] (oral, PG-PVA, 1.46 mmol/kg) it was 37%.
`CC(=O)Oc1ccccc1C(=O)O` [Aspirin, acetylsalicylic acid, reference compound]: the median effective dose (ED50) in assay [1] (oral, 5% gum arabic in saline) is 1.30 mmol/kg; in assay [1] (oral, PG-PVA in saline), 0.48 mmol/kg; in assay [1] (s.c., PG-PVA in saline), 0.52 mmol/kg; in assay [2] (oral, 5% gum arabic in saline) it was 0.62 mmol/kg; in assay [2] (oral, PG-PVA in saline), 1.41 mmol/kg. Besides, the “% Inhibition” value was found to be 29% in assay [1] (setting [6]); 42% in assay [1] (setting [7]); 66% in assay [1] (oral, 5% gum arabic, 2.22 mmol/kg); 32% in assay [1] (oral, PG-PVA, 0.21 mmol/kg); 41% in assay [1] (oral, PG-PVA, 0.42 mmol/kg); 67% in assay [1] (oral, PG-PVA, 0.84 mmol/kg). Also, the “% Inhibition” value came to 28% in assay [1] (s.c., PG-PVA, 0.28 mmol/kg); 57% in assay [1] (s.c., PG-PVA, 0.56 mmol/kg); 71% in assay [1] (s.c., PG-PVA, 1.11 mmol/kg); 27% in assay [2] (oral, 5% gum arabic, 0.28 mmol/kg); 43% in assay [2] (setting [6]); 70% in assay [2] (setting [7]). The “% Inhibition” value in assay [2] (oral, PG-PVA, 0.56 mmol/kg) turned out to be 30%; in assay [2] (oral, PG-PVA, 1.11 mmol/kg), 40%; in assay [2] (oral, PG-PVA, 2.22 mmol/kg), 63%.
Take `CC(C)c1cc(C(=O)[O-])c(O)c(C(C)C)c1.CC(C)c1cc(C(=O)[O-])c(O)c(C(C)C)c1.[Cu+2]` [Cu(II)(3,5-dips)2]: the ED50 in assay [1] (oral, 5% gum arabic in saline) is on record as 0.40 mmol/kg; in assay [1] (oral, PG-PVA in saline), 0.43 mmol/kg; in assay [1] (s.c., PG-PVA in saline), 0.20 mmol/kg; in assay [2] (oral, 5% gum arabic in saline), 0.43 mmol/kg; in assay [2] (oral, PG-PVA in saline), greater than 0.40 mmol/kg; in assay [2] (s.c., PG-PVA in saline), 0.12 mmol/kg. Also, the “analgesic effectiveness versus parent ligand” value in assay [1] (oral, 5% gum arabic in saline) is on record as “slightly less effective than its parent ligand”; in assay [1] (oral, PG-PVA), “only as effective as its parent ligand”; in assay [2] (oral, 5% gum arabic) it was “essentially equipotent with its ligand”; in assay [2] (oral, PG-PVA) it was “more effective than its parent ligand”. The “% Inhibition” value in assay [1] (setting [8]) was 35%; in assay [1] (setting [9]) it was 48%; in assay [1] (oral, 5% gum arabic, 0.80 mmol/kg), 66%; in assay [1] (oral, PG-PVA, 0.20 mmol/kg), 26%; in assay [1] (oral, PG-PVA, 0.40 mmol/kg), 56%; in assay [1] (oral, PG-PVA, 0.79 mmol/kg) it was 62%. For the same compound, the “% Inhibition” value was 27% in assay [1] (s.c., PG-PVA, 0.10 mmol/kg); 45% in assay [1] (s.c., PG-PVA, 0.20 mmol/kg); 74% in assay [1] (s.c., PG-PVA, 0.40 mmol/kg); 7% in assay [2] (oral, 5% gum arabic, 0.10 mmol/kg); 20% in assay [2] (setting [8]); 47% in assay [2] (setting [9]). Also, the “% Inhibition” value is given as 40% in assay [2] (oral, PG-PVA, 0.40 mmol/kg); 23% in assay [2] (s.c., PG-PVA, 0.05 mmol/kg); 37% in assay [2] (s.c., PG-PVA, 0.10 mmol/kg); 70% in assay [2] (s.c., PG-PVA, 0.20 mmol/kg).
Take `C[C@H](N)C(=O)[O-].C[C@H](N)C(=O)[O-].[Cu+2]` [Cu(II)(L-alaninate)2]: in assay [1], the “activity versus other copper complexes and parent ligand” value is reported as “less active than the other copper complexes”. Also, the ED50 in assay [1] (oral, 5% gum arabic in saline) was 0.92 mmol/kg; in assay [2] (oral, 5% gum arabic in saline), greater than 0.42 mmol/kg. Besides, the “% Inhibition” value in assay [1] (setting [10]) is listed as 22%; in assay [1] (oral, 5% gum arabic, 0.83 mmol/kg) it was 48%; in assay [1] (oral, 5% gum arabic, 1.67 mmol/kg), 71%; in assay [2] (setting [10]), 0%.
Take `N[C@@H](CSSC[C@H](N)C(=O)[O-])C(=O)[O-].[Cu+2]` [Cu(II)(L-cystinate)]: the “activity versus other copper complexes and parent ligand” value in assay [1] is “less active than the other copper complexes”. Moreover, the ED50 is greater than 0.33 mmol/kg in assay [1] (oral, 5% gum arabic in saline) and greater than 0.33 mmol/kg in assay [2] (oral, 5% gum arabic in saline). Further, the “% Inhibition” value is recorded as 35% in assay [1] (setting [11]) and 0% in assay [2] (setting [11]).
Consider `NCC(=O)[O-].NCC(=O)[O-].[Cu+2]` [Cu(II)(glycinate)2], for which, in assay [1], the “activity versus other copper complexes and parent ligand” value is given as “less active than the other copper complexes”. Besides, the median effective dose (ED50) in assay [1] (oral, 5% gum arabic in saline) was greater than 1.89 mmol/kg. The “% Inhibition” value in assay [1] (oral, 5% gum arabic, 1.89 mmol/kg) is listed as 48%.
As for `NCC(=O)O` [Glycine, reference compound], in assay [1] (oral, 5% gum arabic in saline), the median effective dose (ED50) is greater than 5.33 mmol/kg. For the same compound, in assay [1] (oral, 5% gum arabic, 5.33 mmol/kg), the “% Inhibition” value is 36%.
In assay [1] (oral, 5% gum arabic in saline), `C[C@H](N)C(=O)O` [L-alanine, reference compound] gave a 50% effective dose (ED50) greater than 4.49 mmol/kg. For the same compound, the “% Inhibition” value in assay [1] (oral, 5% gum arabic, 4.49 mmol/kg) was determined as 14%.
Take `N[C@@H](CS)C(=O)O` [L-cysteine, reference compound]: the ED50 in assay [1] (oral, 5% gum arabic in saline) is greater than 3.30 mmol/kg. In assay [1] (oral, 5% gum arabic, 3.30 mmol/kg), the “% Inhibition” value is recorded as -5%.
With `CN1CC[C@]23c4c5ccc(O)c4O[C@H]2[C@@H](O)C=C[C@H]3[C@H]1C5` [morphine, reference compound], the ED50 in assay [2] (Rattus norvegicus, sc, read-out: ED50 (AA)) came out at 0.002 mmol/kg. Besides, the “ED50 (AA)” value in assay [2] (s.c., hydrochloride salt in saline) was 0.002 mmol/kg. Further, the “% Inhibition” value is 20% in assay [2] (s.c., hydrochloride salt in saline, 0.001 mmol/kg); 40% in assay [2] (s.c., hydrochloride salt in saline, 0.002 mmol/kg); 60% in assay [2] (s.c., hydrochloride salt in saline, 0.004 mmol/kg).
